Common to all, as to assay type: in vivo
Experiment [1] has as its system Arabidopsis seedlings (anchor roots after RAM excision). Put plainly: ANR formation after root apical meristem excision (ANR-RE). From the text: (§1) ANRs were counted in seedlings vertically grown on half strength MS (with 0.5% sucrose +1% agar, 0.5 g/L MES, pH 5.7) media 8 days post-stratification (dps) using a dissection microscope. To investigate ANR formation after root apical meristems (RAM) excision (ANR-RE), RAM of seedlings were excised using sterile scalpels at 5 dps and then grown for another 3 days prior to counting the number of emerged ANRs. RAM of seedlings were excised at 8 dps and then grown for another 3 days prior to counting the number of emerged LRs. For determining the effect of anchorene on lateral roots, the number of emerged lateral roots were counted using a dissection microscope at 8 dps. For primary root length measurements, seedlings were measured using the publicly available ImageJ software (downloaded from rsbweb.nih.gov/ij/) after taking digital photographs. For adventitious root assay, the number of emerged adventitious roots per plant were counted after 5 days of treatment on plates with or without anchorene.
ANR formation under carotenoid-deficient conditions was monitored to determine the role of endogenous carotenoids in ANR development. […] Therefore, ANR formation was monitored after RAM excision (ANR-RE) to stimulate ANR development. ANR measurements were used as an indicator of ANR formation capacity under different conditions. […] Norflurazon (NF) and 2-(4-chlorophenylthio)-triethylamine hydrochloride (CPTA), which block phytoene desaturation and lycopene cyclization, respectively were tested (FIG. 6A). The effect of D15, an inhibitor of CCDs was also investigated. Application of D15 to Arabidopsis seedlings is known to lead to an increase in carotenoid levels.

The test system of experiment [2] is Arabidopsis seedlings (anchor roots). The experiment can be described thus: Anchor root (ANR) emergence/formation in seedlings without RAM excision. The following applies: for activity in promoting ANR formation: anchorene isomer and derivatives, concentrations as indicated in FIGS. 3G-H. Here is the method:
(§2) Sterilized Col-0 and mutants seeds were kept at 4° C. in darkness for 3 days to stimulate seed germination, and then sown on half strength MSO plates (with 0.5% sucrose +1% agar, 0.5g/L MES, pH 5.7) supplemented with the indicated chemicals as described below or in the Figures. Plates were vertically grown in PERCIVAL® growth chambers under long day (16 h light/8 h dark, 22° C., 60% relative humidity, light density: 4000 LUX) LED white light [HYPERIKON® 16 W LED Light Bulb A21, 16 W (100 W Equivalent), CRI92, 1620 Lumens, 4000K (Daylight Glow)] conditions. Light fluorescence rates were measured using a digital LUX meter (PEAKTECH® 5025).
as §1
Prior to the anchor root (ANR) measurements, seeds from 10 ecotypes (Po-0, Is-0, Wu-0, Col-0, Cvi-0, Hi-0, Ove-0, Sav-0, Ler and Kin-0) were harvested from plants grown in long-day photoperiod conditions (16h light/8 h darkness, 22° C., 60% humidity). Seeds of all 10 ecotypes were surfaced sterilized and incubated in sterile water at 4° C. for 8 days, for uniform germination. Natural ANR emergence and ANRC was measured as described above (Anchor root assays) for each ecotype. 20 μM anchorene was used to test the responses of the Po-0 and Is-0 ecotypes to anchorene.
Excision of the root apical meristems (RAM) triggers ANR formation (FIGS. 3C-D). […] About 9% of control Col-0 seedlings developed ANRs under normal conditions, while approximately 50% formed ANRs upon RAM excision (FIGS. 4B-C). […] Higher anchorene concentrations (10 and 20 μM) enhanced this ratio to 97% and 100%, respectively (FIGS. 4B-C). There was also an increase in the number of seedlings that developed two ANRs from 0% in the untreated control to approximately 80% upon application of 20 μM anchorene (FIGS. 4B-C). Using a wide range of concentrations, a dose-response curve was established in the presence and absence of RAM excision. […] Thus, the promotion of ANRs is not caused by inhibiting primary root growth.

Experiment [3] relates to Arabidopsis root growth (Col-0 seedlings). Put plainly: Primary root length of Arabidopsis seedlings on treated half MS agar plates. The following applies: 25 μM, 7 dps. Here is the method:
β-cyclocitral, β-ionone and D′orenone (β-Apo-13-caroteneone) (FIG. 1A) were purchased from Buchem (Netherlands). Diapo1, Diapo2, Diapo3, Diapo4, Diapo5, and Diapo6 (FIG. 1B) were synthesized by Buchem (Netherlands). Diapo3 was also synthesized together with D6-anchorene and anchorene derivatives according to the protocol of SCHEME 2. Apocarotenoids and diapocarotenoids were dissolved in acetone to make stock solutions (10 mM). For the screening experiments, each chemical was diluted in half strength Murashige and Skoog (MS) media (with 0.5% sucrose+1% agar, 0.5 g/L MES, pH 5.7) to reach indicated concentrations of 25 μM and 5 μM. A stock solution of 10 mM GR24 (Chiralix, Netherlands) was also made by diluting GR24 in acetone. Stock solutions of D15 (100 mM), Norflurazone (5 mM), and CPTA (50 mM) were made in dimethyl sulfoxide (DMSO). For experiments, these compounds were diluted in concentrations of 125 μM D15, 500 nM Norflurazone, or 100 μM CPTA, respectively. 1-Naphthaleneacetic acid (NAA) and N-1-Naphthylphthalamic Acid (NPA) were purchased from Sigma-Aldrich (Germany) and dissolved in water to make 1 mM stock solutions. For NAA and NPA treatments, media containing 0.1 μM NAA and 1 μM NPA were used. Unless otherwise noted, all commercially available compounds were used as provided without further purification.
as §2, with “([…]®” for “(PEAKTECH®”
as §1
Six previously identified or predicted diapocarotenoids with chain lengths ranging from C9 to C15 (Diapo1-6) (FIG. 1B) and 3 apocarotenoids (FIG. 1C) were selected to identify new carotenoid-derived signals involved in root development). These compounds were selected because they are available and stable at ambient conditions. Diapo1 (C9) is the expected product formed upon cleavage of all-trans-β-apo-10′ carotenal. Diapo2 (C10) results from cleaving the C7, C8 and C15, C15′ double bonds in different carotenoids and is produced by cyanobacterial retinal-forming enzymes from Cm-apocarotenoids. Diapo3 (C10) is a structural isomer of Diapo2 and a predicted cleavage product that can be formed by cutting the C11, C12 and C11′, C12′ bonds in almost all plant carotenoids (FIGS. 1A, 1B and 17). Diapo4 (C12) results from cleaving the C7, C8 and C13′, C14′ bonds in many carotenoids, and is formed by the CCD1 from apo-10′-lycopenal.

Turning to `CC1=CC(=O)CC(C)(C)[C@@]1(O)/C=C/C(C)=C\C(=O)O` [ABA, abscisic acid], the ANR-RE entry in experiment [1] (0.1 and 0.5 μM ABA) is recorded as “did not impact”. Turning to `C\C(=C/C=C/C=C(\C)C(=O)O)C(=O)O` [AR di-acid, (2E,4E,6E)-2,7-dimethylocta-2,4,6-trienedioic acid], in experiment [2], the “activity in promoting ANR formation” value is on record as “inactivity”. Consider `C\C(=C/C=C/C=C(\C)CO)CO` [AR di-alcohol, (2E,4E,6E)-2,7-dimethylocta-2,4,6-triene-1,8-diol], for which, in experiment [2], the “activity in promoting ANR formation” value is reported as “inactivity”.

Turning to `CCOC(=O)/C(C)=C/C=C/C=C(\C)C(=O)OCC` [AR di-ethyl ester, diethyl (2E,4E,6E)-2,7-dimethylocta-2,4,6-trienedioate], the “activity in promoting ANR formation” value in experiment [2] is on record as “inactivity”.

Turning to `CCN(CC)CCSc1ccc(Cl)cc1.Cl` [CPTA, 2-(4-chlorophenylthio)-triethylamine hydrochloride], the ANR-RE entry in experiment [1] (1 μM NF, 100 μM CPTA, 150 μM D15, RAM cut at 5 DAG, grown 3 more days) is recorded as “strongly reduced”. For `CC(/C=C/C=O)=C\C=C\C=O` [Diapo1, 10,14′-diapocarotene-10,14′-dial], the “inhibition of primary root growth” value in experiment [3] is on record as “weak inhibition”.

As to `C\C(C=O)=C/C(C)=C/C=C/C=O` [Diapo2, 8,15-diapocarotene-8,15-dial], in experiment [3], the “reduction in primary root growth” value was “approximately 80%”. For the same molecule, the ANR formation result in experiment [2] (25 μM (FIGS. 3G-H)) is reported as “modest increase”. For `C\C(C=O)=C/C(C)=C/C=C/C=C/C=O` [Diapo4, 8,14′-diapocarotene-8,14′-dial], the “inhibition of primary root growth” value in experiment [3] is listed as “weak inhibition”. Take `C\C(C=O)=C/C=C/C=C/C=C(C)/C=C(\C)C=O` [Diapo5, 8,12′-diapocarotene-8,12′-dial]: in experiment [3], the “reduction in primary root growth” value is given as “approximately 80%”. On to `CC1=C[C@H](O/C=C2/C(=O)O[C@@H]3c4ccccc4C[C@H]23)OC1=O` [GR24], for which the “ANR formation (ANR-RE)” value in experiment [1] (1 μM GR24) is listed as “inhibited ANR formation”. With `O=C(O)Cc1cccc2ccccc12` [NAA, 1-Naphthaleneacetic acid], in experiment [1] (0.1 μM NAA, 1 μM NPA), the ANR-RE result was “greatly increased”.

Take `O=C(O)c1ccccc1C(=O)Nc1cccc2ccccc12` [NPA, N-1-Naphthylphthalamic Acid]: the ANR-RE entry in experiment [1] (0.1 μM NAA, 1 μM NPA) is given as “completely blocked”.
